# Reference: ChEMBL document CHEMBL4346691, “GABA allosteric modulators: An overview of recent developments in non-benzodiazepine modulators” (Eur J Med Chem, 2019)
# Legend:
# [1] = target: GABA-A receptor; alpha-1/beta-3/gamma-2 (Homo sapiens) (UniProt P14867+P18507+P28472); test: Positive allosteric modulation of human GABA-Aalpha1beta3gamma2 receptor expressed in mouse L(tk-) cells assessed as GABA-induced membrane potential at 10 uM incubated for 2.5 min by FLIPR assay relative to control; type: cell-based
# Homo sapiens [2] = species on record: Homo sapiens; test: Positive allosteric modulation of human GABAA alpha4beta3gamma2 receptor expressed in mouse L(tk-) cells assessed as GABA-induced membrane potential at 10 uM incubated for 2.5 min by FLIPR assay relative to control; type: cell-based
# Homo sapiens [3] = species on record: Homo sapiens; test: Positive allosteric modulation of human GABA-A alpha4beta3delta receptor expressed in mouse L(tk-) cells assessed as GABA-induced membrane potential at 10 uM incubated for 2.5 min by FLIPR assay relative to control; type: cell-based
# [4] = target: T1, GABA-A receptor; alpha-1/beta-2/gamma-2 (Homo sapiens) (UniProt P14867+P47870+P18507); test: Positive allosteric modulation of recombinant human GABAA alpha1beta2gamma2s receptor expressed in Xenopus laevis oocytes assessed as GABA-stimulated current amplitude at 300 uM measured for 2 min by electrophysiological method relative to control; type: cell-based
# Xenopus laevis = test: Anaesthetic activity in Xenopus laevis tadpoles assessed as dose causing loss of righting reflex measured every 10 mins up to 120 mins; type: functional, organism-based
# [5] = Binding affinity to recombinant human GABA-A alpha2beta3gamma2 receptor expressed in L(tk) cells; type: cell-based
# [6] = Displacement of [3H]-Flumazenil from GABAA/BZD receptor in Sprague-Dawley rat cerebral cortex incubated for 40 mins by liquid scintillation counting method
# [7] = target: T2, GABA-A receptor; alpha-1/beta-2/gamma-2 (Homo sapiens, UniProt P14867+P18507+P47870); test: Positive allosteric modulation of human recombinant GABA-A alpha1beta2gamma2L receptor expressed in Xenopus laevis oocytes by two-electrode voltage clamp method; type: cell-based
# T2 sequence (P14867 whole entry): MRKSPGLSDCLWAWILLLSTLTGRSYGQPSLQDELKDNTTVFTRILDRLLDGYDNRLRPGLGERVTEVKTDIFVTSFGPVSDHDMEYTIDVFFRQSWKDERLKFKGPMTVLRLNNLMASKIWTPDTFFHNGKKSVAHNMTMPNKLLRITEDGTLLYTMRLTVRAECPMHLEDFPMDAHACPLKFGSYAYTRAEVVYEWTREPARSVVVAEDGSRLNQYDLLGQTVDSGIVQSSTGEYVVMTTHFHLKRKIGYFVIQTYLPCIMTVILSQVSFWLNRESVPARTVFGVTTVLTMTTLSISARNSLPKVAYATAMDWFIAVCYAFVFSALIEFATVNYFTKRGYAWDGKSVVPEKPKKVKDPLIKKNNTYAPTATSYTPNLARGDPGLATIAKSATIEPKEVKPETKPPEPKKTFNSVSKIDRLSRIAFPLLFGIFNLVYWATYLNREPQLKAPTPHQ
# T2 sequence (P47870 whole entry): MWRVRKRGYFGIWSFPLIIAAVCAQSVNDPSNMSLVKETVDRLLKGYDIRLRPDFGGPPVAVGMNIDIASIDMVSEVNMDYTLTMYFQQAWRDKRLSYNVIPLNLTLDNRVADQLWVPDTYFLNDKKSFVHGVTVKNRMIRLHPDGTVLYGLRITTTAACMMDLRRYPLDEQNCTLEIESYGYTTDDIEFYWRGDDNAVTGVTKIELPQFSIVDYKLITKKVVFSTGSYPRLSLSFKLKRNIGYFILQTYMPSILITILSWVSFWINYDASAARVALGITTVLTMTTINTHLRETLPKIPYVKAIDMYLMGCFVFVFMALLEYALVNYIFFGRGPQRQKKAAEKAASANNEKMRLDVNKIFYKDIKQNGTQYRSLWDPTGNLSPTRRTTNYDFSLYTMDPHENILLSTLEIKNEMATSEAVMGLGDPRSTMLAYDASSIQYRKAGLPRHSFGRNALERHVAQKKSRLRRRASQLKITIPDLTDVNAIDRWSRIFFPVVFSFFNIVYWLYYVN
# T2 sequence (P18507 whole entry): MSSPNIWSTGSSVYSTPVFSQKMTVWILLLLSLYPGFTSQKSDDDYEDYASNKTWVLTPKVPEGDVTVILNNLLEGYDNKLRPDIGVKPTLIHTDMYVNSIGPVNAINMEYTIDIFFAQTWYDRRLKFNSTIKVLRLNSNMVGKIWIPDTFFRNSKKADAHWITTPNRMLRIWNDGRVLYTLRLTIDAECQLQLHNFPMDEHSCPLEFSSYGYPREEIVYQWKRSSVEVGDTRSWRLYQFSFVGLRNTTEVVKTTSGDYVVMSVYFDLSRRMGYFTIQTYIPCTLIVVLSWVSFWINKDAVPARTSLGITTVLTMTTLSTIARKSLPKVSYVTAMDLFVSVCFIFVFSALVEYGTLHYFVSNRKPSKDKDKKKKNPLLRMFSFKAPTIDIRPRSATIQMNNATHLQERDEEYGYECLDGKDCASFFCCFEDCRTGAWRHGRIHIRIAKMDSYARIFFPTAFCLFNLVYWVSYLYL
# [8] = target: T1, GABA-A receptor; alpha-1/beta-2/gamma-2 (Homo sapiens); test: Positive allosteric modulation of human recombinant GABA-A alpha1beta2gamma2L receptor expressed in Xenopus laevis oocytes assessed as maximal current response by two-electrode voltage clamp method relative to control; type: cell-based
# [9] = target: T1, GABA-A receptor; alpha-1/beta-2/gamma-2 (Homo sapiens); test: Positive allosteric modulation of human GABA-A alpha1beta2gamma2S receptor expressed in Xenopus laevis oocytes assessed as increase in GABA-induced chloride channel current by two-electrode voltage clamp method; type: cell-based
# [10] = target: T2, GABA-A receptor; alpha-1/beta-2/gamma-2; test: Positive allosteric modulation of human GABA-A alpha1beta2gamma2S receptor expressed in Xenopus laevis oocytes assessed as increase in GABA-induced chloride channel current by two-electrode voltage clamp method relative to control; type: cell-based
# [11] = target: T1, GABA-A receptor; alpha-1/beta-2/gamma-2 (Homo sapiens); test: Positive allosteric modulation of human GABA-A alpha1beta2gamma2S receptor expressed in Xenopus laevis oocytes assessed as increase in GABA-induced chloride channel current at 100 uM by two-electrode voltage clamp method relative to control; type: cell-based
# [12] = Oral bioavailability in rat at 3 mg/kg; type: ADME, organism-based; settings: in vivo
# [13] = Displacement of [3H]-Flumazenil from GABAA/BZD receptor in rat cortical membranes; type: cell membranes
# [14] = target: GABA-A receptor; anion channel; test: Displacement of [35S]TBPS from Sprague-Dawley rat brain cortical membrane GABAA receptor incubated for 90 mins by scintillation counting method
# [15] = target: T3, GABA-A receptor; alpha-5/beta-3/gamma-2 (Homo sapiens) (UniProt P18507+P28472+P31644); test: Inverse agonist activity at recombinant human GABA-A alpha5beta3gamma2 receptor expressed in Xenopus laevis oocytes relative to control; type: cell-based
# [16] = Displacement of [3H]-Flumazenil from GABAA/BZD receptor in rat cortical membranes incubated for 40 mins by radioligand binding assay; type: cell membranes
# [17] = target: T4, GABA-A receptor; alpha-5/beta-3/gamma-2 (Homo sapiens, UniProt P18507+P28472+P31644); test: Inverse agonist activity at recombinant human GABA-A alpha5beta3gamma2 receptor expressed in mouse L(tk-) cells by radioligand binding assay; type: cell-based
# T4 sequence (P18507 whole entry): T2 sequence (P18507 whole entry)
# T4 sequence (P28472 whole entry): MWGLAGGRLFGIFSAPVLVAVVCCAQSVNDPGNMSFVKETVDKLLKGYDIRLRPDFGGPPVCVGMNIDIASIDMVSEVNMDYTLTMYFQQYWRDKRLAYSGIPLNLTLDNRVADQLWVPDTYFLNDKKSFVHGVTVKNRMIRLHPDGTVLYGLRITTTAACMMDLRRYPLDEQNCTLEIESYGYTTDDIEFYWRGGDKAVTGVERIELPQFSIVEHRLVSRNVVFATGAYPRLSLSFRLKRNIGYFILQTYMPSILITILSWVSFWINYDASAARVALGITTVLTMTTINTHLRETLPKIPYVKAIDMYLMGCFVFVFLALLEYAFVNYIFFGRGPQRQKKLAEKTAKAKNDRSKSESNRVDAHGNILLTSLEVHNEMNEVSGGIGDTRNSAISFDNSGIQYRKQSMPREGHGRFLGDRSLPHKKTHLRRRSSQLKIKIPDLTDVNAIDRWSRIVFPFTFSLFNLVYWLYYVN
# T4 sequence (P31644 whole entry): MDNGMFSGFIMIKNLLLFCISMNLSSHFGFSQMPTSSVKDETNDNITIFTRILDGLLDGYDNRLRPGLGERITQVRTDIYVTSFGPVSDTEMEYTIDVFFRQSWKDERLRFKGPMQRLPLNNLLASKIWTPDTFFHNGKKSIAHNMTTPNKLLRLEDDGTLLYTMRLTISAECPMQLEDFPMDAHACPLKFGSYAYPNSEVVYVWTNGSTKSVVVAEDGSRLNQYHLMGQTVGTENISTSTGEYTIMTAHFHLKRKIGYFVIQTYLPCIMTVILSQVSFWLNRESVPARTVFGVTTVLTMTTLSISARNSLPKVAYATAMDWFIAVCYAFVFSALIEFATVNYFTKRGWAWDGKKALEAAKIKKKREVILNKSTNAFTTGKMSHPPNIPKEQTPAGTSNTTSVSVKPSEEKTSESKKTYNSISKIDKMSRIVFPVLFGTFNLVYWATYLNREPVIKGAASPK
# [18] = target: T3, GABA-A receptor; alpha-5/beta-3/gamma-2 (Homo sapiens); test: Inverse agonist activity at recombinant human GABA-A alpha5beta3gamma2 receptor expressed in mouse L(tk-) cells by whole-cell patch-Clamp method; type: cell-based
# [19] = Inhibition of BZD receptor (unknown origin); design: species or system Homo sapiens
# Homo sapiens [20] = species on record: Homo sapiens; test: Partial agonist activity at human GABA-A alpha4beta3delta receptor expressed in Xenopus laevis oocytes assessed as maximal GABA response by electrophysiology method relative to GABA; type: cell-based
# Homo sapiens [21] = species on record: Homo sapiens; test: Selectivity ratio, ratio of EC50 for human GABA-A alpha4beta1delta receptor expressed in Xenopus laevis oocytes to EC50 for human GABA-A alpha4beta2delta receptor expressed in Xenopus laevis oocytes; type: cell-based
# [22] = Binding affinity to human GABA-A alpha4beta3delta receptor expressed in Xenopus laevis oocytes; type: cell-based
# [23] = Binding affinity to human GABA-A alpha4beta2delta receptor expressed in Xenopus laevis oocytes; type: cell-based
# Homo sapiens [24] = species on record: Homo sapiens; test: Agonist activity at human GABA-A alpha4beta2delta receptor expressed in Xenopus laevis oocytes assessed as maximal GABA response by electrophysiology method relative to GABA; type: cell-based
# Homo sapiens [25] = species on record: Homo sapiens; test: Selectivity ratio, ratio of EC50 for human GABA-A alpha4beta1delta receptor expressed in Xenopus laevis oocytes to EC50 for human GABA-A alpha4beta3delta receptor expressed in Xenopus laevis oocytes; type: cell-based
# [26] = target: Gamma-aminobutyric acid receptor subunit alpha-4/beta-1/delta (Homo sapiens) (UniProt P48169+O14764+P18505); test: Partial agonist activity at human GABA-A alpha4beta1delta receptor expressed in Xenopus laevis oocytes assessed as maximal GABA response by electrophysiology method relative to GABA; type: cell-based
# Homo sapiens [27] = species on record: Homo sapiens; test: Positive allosteric modulation of human GABA-A alpha4beta3delta receptor expressed in mouse L(tk-) cells assessed as GABA-induced membrane potential at 1 uM incubated for 2.5 min by FLIPR assay relative to control; type: cell-based
smiles,measurement,setting,value
O=C(Nc1c(-c2cccs2)nc2c(Br)cc(Br)cn12)c1ccc(Cl)cc1,Activity,[1],407%
same,Activity,Homo sapiens [2],306%
same,Activity,Homo sapiens [3],975%
CC1=CCC(C(C)(C)O)CC1 (stereo not drawn),Activity,[4],91.2%
CC1CCCC(C)C1O (stereo not drawn),EC50,Xenopus laevis,13100 nM
c1ccc(-c2nnc3c4ccccc4c(OCc4ccccn4)nn23)cc1,Ki,[5],1.7 nM
O=C1C[C@@H](c2ccc(O)cc2)Oc2cc(O)c(-c3c(O)cc(O)c4c(=O)cc(-c5ccc(O)cc5)oc34)c(O)c21,Ki,[6],45 nM
CC(C)[C@H]1CC[C@@H](C)C[C@@H]1O,Activity,[4],226%
CCCc1cc2c(=O)c(-c3ccc4c(c3)OCO4)c(CC)oc2cc1OC(=O)CC,EC50,[7],9300 nM
same,Emax,[8],1080%
COc1ccc2ccc(=O)oc2c1CC=C(C)C [OSTHOLE],Activity,[9],116%
same,EC50,[10],14000 nM
same,Activity,[11],> 20%
c1ccc(-c2nnc3c4c(c(OCc5ccccn5)nn23)C2CCC4CC2)cc1,bioavailability,[12],33%
same,Ki,[5],26 nM
CCOC(=O)c1cnc2ccc(C(F)(F)F)cc2c1O,Ki,[13],122 nM
O=C1C[C@@H](c2ccc(O)cc2)Oc2c1c(O)cc(O)c2-c1c(O)cc(O)c2c(=O)cc(-c3ccc(O)cc3)oc12,Ki,[6],280 nM
CCNC1=Nc2ccc(Cl)cc2C(C)(c2ccccc2)O1 (stereo not drawn) [ETIFOXINE],IC50,[14],6700 nM
OC1CCCCC1,Activity,[4],30.1%
Cc1cc(-c2nnc3c4ccccc4c(OCc4cn(C)nn4)nn23)no1,Efficacy,[15],-29%
CC1(C)O[C@@H]1COc1c2occc2cc2ccc(=O)oc12,Activity,[11],> 20%
CC(C)=CCOc1c2ccoc2cc2oc(=O)ccc12,Activity,[11],> 20%
C=C(C)[C@H]1CC[C@H](C)C[C@@H]1O,Activity,[4],280%
CCCCCc1nsc2[nH]c3ccc(C)cc3c(=O)c12,Ki,[16],13 nM
CC(C)=CCOc1c2occc2cc2ccc(=O)oc12,Activity,[11],> 20%
CC(C)C1CCCC(C(C)C)C1O (stereo not drawn),EC50,Xenopus laevis,14000 nM
Cc1cc(-c2nncc3c(C(C)(C)C)c(OCc4ncnn4C)nn23)no1,Ki,[17],3 nM
same,Efficacy,[18],-55%
c1ccc(COc2nn3c(-c4ccccc4)nnc3c3ccccc23)cc1,Ki,[5],16 nM
O=c1c2c[nH]c3c(c-2nn1-c1ccc(Cl)cc1)CCCC3,IC50,[19],1 nM
COc1ccccc1-c1oc2ccc(C)cc2c(=O)c1O,Imax,Homo sapiens [20],105%
same,Ratio EC50,Homo sapiens [21],10
same,EC50,[22],2500 nM
same,EC50,[23],1400 nM
same,Imax,Homo sapiens [24],105%
same,Ratio EC50,Homo sapiens [25],10
same,Imax,[26],61%
O=C(Nc1c(-c2cccs2)nc2ccccn12)c1ccc(Cl)cc1,Activity,Homo sapiens [27],126%
COc1c2ccoc2c(OCC=C(C)C)c2oc(=O)ccc12,Activity,[11],> 20%
CC1(C)O[C@H]1COc1c2ccoc2cc2oc(=O)ccc12 [OXYPEUCEDANIN],Activity,[9],547%
same,EC50,[10],25000 nM
same,Activity,[11],> 20%
CCCC(=O)Nc1nsc2[nH]c3ccc(C)cc3c(=O)c12,Ki,[16],2.8 nM
